Assay results: patent US20240245673A1, “Papain-like protease (PLpro) inhibitors” (Pfizer Inc., priority 2022, published 2024)

biological target: SARS-CoV-2 Papain like protease (PLpro) (Severe acute respiratory syndrome coronavirus 2 (2019-nCoV) (SARS-CoV-2), UniProt P0DTD1); experiment: Papain Like Protease (PLpro) biochemical assay with profluorogenic substrate Z-RLRGG-AMC; details: SARS-CoV-2 PLpro 6.25 nM, 25 μM Z-RLRGG-AMC substrate, 60 minute reaction; read-out: IC50

Row | Structure (SMILES) | IC50 [nM]
1 | Cc1cc(COCc2nccn2C)ccc1C(=O)N[C@H](C)c1cc(-c2cnn(C)c2)nc2ccccc12 [Example 291, (R)-2-methyl-4-(((1-methyl-1H-imidazol-2-yl)methoxy)methyl)-N-(1-(2-(1-methyl-1H-pyrazol-4-yl)quinolin-4-yl)ethyl)benzamide] | 1
2 | Cc1ccc(N2CCN(C)CC2)cc1C(=O)NC1(c2cc(-c3ccc(C(=O)N(C)C)[nH]3)cc3ccccc23)CC1 [Example 292, N,N-dimethyl-5-(4-(1-(2-methyl-5-(4-methylpiperazin-1-yl)benzamido)cyclopropyl)naphthalen-2-yl)-1H-pyrrole-2-carboxamide] | < 1
3 | Cc1cc(CC(=O)Nc2ncsc2C)ccc1C(=O)N[C@H](C)c1cc(-c2cnn(C)c2)nc2ccccc12 [Example 298, (R)-2-methyl-N-(1-(2-(1-methyl-1H-pyrazol-4-yl)quinolin-4-yl)ethyl)-4-(2-((5-methylthiazol-4-yl)amino)-2-oxoethyl)benzamide] | < 1
4 | Cc1cc(C(O)C(=O)Nc2cscn2)ccc1C(=O)N[C@H](C)c1cc(-c2cnn(C)c2)nc2ccccc12 (stereo partly drawn) [Example 301, 4-(1-hydroxy-2-oxo-2-(thiazol-4-ylamino)ethyl)-2-methyl-N-((R)-1-(2-(1-methyl-1H-pyrazol-4-yl)quinolin-4-yl)ethyl)benzamide] | 1
5 | Cc1cc(C(NCc2cscn2)C(F)(F)F)ccc1C(=O)N[C@H](C)c1cc(-c2cnn(C)c2)nc2ccccc12 (stereo partly drawn) [Example 310, 2-methyl-N-((R)-1-(2-(1-methyl-1H-pyrazol-4-yl)quinolin-4-yl)ethyl)-4-(2,2,2-trifluoro-1-((thiazol-4-ylmethyl)amino)ethyl)benzamide] | 3
6 | Cc1cc(CC(=O)Nc2cscn2)ccc1C(=O)NC1(c2cc(-c3cnn(C)c3)nc3ccccc23)CC1 [Example 313, 2-methyl-N-(1-(2-(1-methyl-1H-pyrazol-4-yl)quinolin-4-yl)cyclopropyl)-4-(2-oxo-2-(thiazol-4-ylamino)ethyl)benzamide] | 4
7 | Cc1cc(C(=O)NC2(c3cscn3)CC2)ccc1C(=O)N[C@H](C)c1cc(-c2cnn(C)c2)nc2ccccc12 [Example 314, (R)-2-methyl-N1-(1-(2-(1-methyl-1H-pyrazol-4-yl)quinolin-4-yl)ethyl)-N4-(1-(thiazol-4-yl)cyclopropyl)terephthalamide] | 2
8 | Cc1cc(C(=O)NCc2ncoc2C)ccc1C(=O)N[C@H](C)c1cc(-c2cnn(C)c2)nc2ccccc12 [Example 317, (R)-2-methyl-N1-(1-(2-(1-methyl-1H-pyrazol-4-yl)quinolin-4-yl)ethyl)-N4-((5-methyloxazol-4-yl)methyl)terephthalamide] | 6
9 | Cc1cc(C(C)OCc2cscn2)ncc1C(=O)N[C@H](C)c1cc(-c2cnn(C)c2)nc2ccccc12 (stereo partly drawn) [Example 321, 4-methyl-N—((R)-1-(2-(1-methyl-1H-pyrazol-4-yl)quinolin-4-yl)ethyl)-6-(1-(thiazol-4-ylmethoxy)ethyl)nicotinamide] | 3
10 | Cc1cc(C(C)OCc2nccn2C)ncc1C(=O)N[C@H](C)c1cc(-c2cnn(C)c2)nc2ccccc12 (stereo partly drawn) [Example 322, 4-methyl-6-(1-((1-methyl-1H-imidazol-2-yl)methoxy)ethyl)-N-((R)-1-(2-(1-methyl-1H-pyrazol-4-yl)quinolin-4-yl)ethyl)nicotinamide] | 7
11 | Cc1cc(COCc2cscn2)ccc1C(=O)NC1(c2cc(-c3cnn(C)c3)nc3ccccc23)CC1 [Example 323, 2-methyl-N-(1-(2-(1-methyl-1H-pyrazol-4-yl)quinolin-4-yl)cyclopropyl)-4-((thiazol-4-ylmethoxy)methyl)benzamide] | < 1
12 | Cc1cc(COCc2cscn2)ccc1C(=O)NC1(c2cc(-c3cnn(CCS(C)(=O)=O)c3)nc3ccccc23)CC1 [Example 328, 2-methyl-N-(1-(2-(1-(2-(methylsulfonyl)ethyl)-1H-pyrazol-4-yl)quinolin-4-yl)cyclopropyl)-4-((thiazol-4-ylmethoxy)methyl)benzamide] | < 1
13 | Cc1cc(COCc2cscn2)ccc1C(=O)NC1(c2cc(-c3cc(C(=O)N(C)CCN(C)C)n[nH]3)nc3ccccc23)CC1 [Example 329, N-(2-(dimethylamino)ethyl)-N-methyl-5-(4-(1-(2-methyl-4-((thiazol-4-ylmethoxy)methyl)benzamido)cyclopropyl)quinolin-2-yl)-1H-pyrazole-3-carboxamide] | < 1
14 | Cc1cc(COCc2ncsc2CO)ccc1C(=O)NC1(c2cc(-c3cnn(C)c3)nc3ccccc23)CC1 [Example 330, 4-(((5-(hydroxymethyl)thiazol-4-yl)methoxy)methyl)-2-methyl-N-(1-(2-(1-methyl-1H-pyrazol-4-yl)quinolin-4-yl)cyclopropyl)benzamide] | < 1
15 | Cc1cc(COCc2cscn2)ccc1C(=O)NC1(c2cc(-c3cnn(CS(C)(=O)=O)c3)nc3ccccc23)CC1 [Example 341, 2-methyl-N-(1-(2-(1-((methylsulfonyl)methyl)-1H-pyrazol-4-yl)quinolin-4-yl)cyclopropyl)-4-((thiazol-4-ylmethoxy)methyl)benzamide] | < 1
16 | Cc1cc(COCc2cscn2)ccc1C(=O)NC1(c2cc(-c3cnn(CC(=O)N(C)C)c3)nc3ccccc23)CC1 [Example 342, N-(1-(2-(1-(2-(dimethylamino)-2-oxoethyl)-1H-pyrazol-4-yl)quinolin-4-yl)cyclopropyl)-2-methyl-4-((thiazol-4-ylmethoxy)methyl)benzamide] | < 1
17 | Cc1cc(COCc2cscn2)ccc1C(=O)NC1(c2cc(-c3cc(C(=O)N(C)C)n[nH]3)nc3ccccc23)CC1 [Example 343, N,N-dimethyl-5-(4-(1-(2-methyl-4-((thiazol-4-ylmethoxy)methyl)benzamido)cyclopropyl)quinolin-2-yl)-1H-pyrazole-3-carboxamide] | < 1
18 | Cc1cc(COCc2cocn2)ccc1C(=O)NC1(c2cc(-c3cnn(C)c3)nc3ccccc23)CC1 [Example 344, 2-methyl-N-(1-(2-(1-methyl-1H-pyrazol-4-yl)quinolin-4-yl)cyclopropyl)-4-((oxazol-4-ylmethoxy)methyl)benzamide] | < 1
19 | Cc1cc(COCc2cocn2)ccc1C(=O)NC1(c2cc(-c3cnn(C)c3)cc3ncccc23)CC1 [Example 345, 2-methyl-N-(1-(7-(1-methyl-1H-pyrazol-4-yl)quinolin-5-yl)cyclopropyl)-4-((oxazol-4-ylmethoxy)methyl)benzamide] | < 1
20 | Cc1cc(COCc2cocn2)ccc1C(=O)NC1(c2cc(-c3cc(C(=O)N(C)C)n[nH]3)nc3ccccc23)CC1 [Example 346, N,N-dimethyl-5-(4-(1-(2-methyl-4-((oxazol-4-ylmethoxy)methyl)benzamido)cyclopropyl)quinolin-2-yl)-1H-pyrazole-3-carboxamide] | < 1
21 | CNC(=O)c1cc(-c2cc(C3(NC(=O)c4ccc(COCc5cscn5)cc4C)CC3)c3ccccc3n2)[nH]n1 [Example 347, N-methyl-5-(4-(1-(2-methyl-4-((thiazol-4-ylmethoxy)methyl)benzamido)cyclopropyl)quinolin-2-yl)-1H-pyrazole-3-carboxamide] | < 1
22 | Cc1ccc2c(C3(NC(=O)c4ccc(COCc5cocn5)cc4C)CC3)cc(-c3cnn(C)c3)cc2n1 [Example 348, 2-methyl-N-(1-(2-methyl-7-(1-methyl-1H-pyrazol-4-yl)quinolin-5-yl)cyclopropyl)-4-((oxazol-4-ylmethoxy)methyl)benzamide] | < 1
23 | Cc1cc(COCc2cscn2)ccc1C(=O)NC1(c2cc(-c3cc(C(N)=O)n[nH]3)nc3ccccc23)CC1 [Example 349, 5-(4-(1-(2-methyl-4-((thiazol-4-ylmethoxy)methyl)benzamido)cyclopropyl)quinolin-2-yl)-1H-pyrazole-3-carboxamide] | < 1
24 | Cc1cc(COCc2cocn2)ccc1C(=O)NC1(c2cc(-c3cc(C(=O)N(C)C)n[nH]3)cc3ncccc23)CC1 [Example 350, N,N-dimethyl-5-(5-(1-(2-methyl-4-((oxazol-4-ylmethoxy)methyl)benzamido)cyclopropyl)quinolin-7-yl)-1H-pyrazole-3-carboxamide] | < 1
25 | Cc1cc(COCc2cscn2)ccc1C(=O)NC1(c2cc(-c3cc(C(=O)N(C)C)n[nH]3)cc3ncccc23)CC1 [Example 351, N,N-dimethyl-5-(5-(1-(2-methyl-4-((thiazol-4-ylmethoxy)methyl)benzamido)cyclopropyl)quinolin-7-yl)-1H-pyrazole-3-carboxamide] | < 1
26 | Cc1cc(COCc2cscn2)ccc1C(=O)NC1(c2cc(-c3cnn(CC(N)=O)c3)nc3ccccc23)CC1 [Example 352, N-(1-(2-(1-(2-amino-2-oxoethyl)-1H-pyrazol-4-yl)quinolin-4-yl)cyclopropyl)-2-methyl-4-((thiazol-4-ylmethoxy)methyl)benzamide] | < 1
27 | COCC(OCc1cscn1)c1ccc(C(=O)NC2(c3cc(-c4cnn(C)c4)cc4nc(C)ccc34)CC2)c(C)c1 (stereo not drawn) [Example 353, 4-(2-methoxy-1-(thiazol-4-ylmethoxy)ethyl)-2-methyl-N-(1-(2-methyl-7-(1-methyl-1H-pyrazol-4-yl)quinolin-5-yl)cyclopropyl)benzamide] | < 1
28 | Cc1cc(COCc2cscn2)ccc1C(=O)NC1(c2cc(-c3cnn(C)c3)cc3nc(C(C)(C)O)ccc23)CC1 [Example 354, N-(1-(2-(2-hydroxypropan-2-yl)-7-(1-methyl-1H-pyrazol-4-yl)quinolin-5-yl)cyclopropyl)-2-methyl-4-((thiazol-4-ylmethoxy)methyl)benzamide] | < 1
29 | Cc1cc(COCc2cscn2)ccc1C(=O)NC1(c2cc(-c3cc(C(=O)N(C)CC(C)(C)O)n[nH]3)nc3ccccc23)CC1 [Example 357, N-(2-hydroxy-2-methylpropyl)-N-methyl-5-(4-(1-(2-methyl-4-((thiazol-4-ylmethoxy)methyl)benzamido)cyclopropyl)quinolin-2-yl)-1H-pyrazole-3-carboxamide] | < 1
30 | Cc1cc(COCc2cscn2)ccc1C(=O)NC1(c2cc(-c3cnn(C)c3)cc3nc(O)ccc23)CC1 [Example 358, N-(1-(2-hydroxy-7-(1-methyl-1H-pyrazol-4-yl)quinolin-5-yl)cyclopropyl)-2-methyl-4-((thiazol-4-ylmethoxy)methyl)benzamide] | < 1
